Article PMC6269915, “Design, Synthesis and Evaluation of 3-(2-Aminoheterocycle)-4-benzyloxyphenylbenzamide Derivatives as BACE-1 Inhibitors” (Molecules, 2013)
Entries after “also recorded” stand apart in the source; their conditions may differ. Structures can show the parent of a compound that is named as a salt. Where two headings read alike, the source gives them in different places.

What was measured:
BACE-1 [1] = molecular target: T1, BACE-1 (Homo sapiens, UniProt P56817); conditions: cited from earlier work
T1 construct: host or cells: insect cells

[2] = design: method as in PMID 17156133; conditions: in words; cited from earlier work
BACE-1 [3] = molecular target: T1, BACE-1; assay: BACE-1 inhibition, fluorescence resonance energy transfer (FRET) assay; type: biochemical; conditions: BACE-1 FRET assay; for inhibition at 20 µg/mL: 20 μg/mL
Description: The obtained target compounds were tested for their BACE-1 inhibitory activities using a fluorescence resonance energy transfer (FRET) assay, with OM99-2, a potent peptidomimetic inhibitor, as the positive control.
All synthesized compounds were tested for their BACE 1 inhibitor activities using a fluorescence resonance energy transfer (FRET) assay, which used purified insect-expressed BACE-1 and a specific substrate. An excitation wavelength of 355 nm and an emission wavelength of 460 nm were used to monitor the hydrolysis of substrate.

[4] = design: method as in PMID 19409780; conditions: mice, 20 mg/kg iv, t = 30 min; cited from earlier work
[5] = Bidirectional transport across MDCK monolayer cells; type: in vitro ADME, canine; conditions: dog
Description: (§1) Blood-brain barrier (BBB) permeation is critical for any AD therapeutic drug.
(§2) Madin-Darby canine kidney cell line (MDCK) was obtained from Peking Union Medical College (Beijing, China). The MDR1-transfected MDCK-MDR1 cells were established in Prof. Su Zeng’s laboratory as follows: MDCK cells were seeded onto six-well plates with a seeding density of 1 × 10^5 cells/well and cultured for 48 h. pcDNA3.1(+)/MDR1 plasmid vector was transfected into MDCK cells using Lipofectamine ^TM 2000 reagent according to the manufacturer’s instructions. Cells were subcultured in DMEM containing 600 µg/mL G418 for 96 h, and then replaced by DMEM containing 800 μg/mL G418 for a further 24 h. Cells were transferred to culture bottle and incubated in DMEM supplemented with 600 μg/mL G418 for 20 days. 19 stable transfected monoclonals grown on 96-well plates were obtained after dilution screening. Cells were cultured in DMEM with 10% fetal bovine serum, and grown in a humidified atmosphere of 5% CO2 at 37 °C. A solution of 0.25% trypsin-EDTA was used to detach the cells from flasks.
MDCK and MDCK-MDR1 cells were washed twice and equilibrated at 37 °C for 30 min with pre-warmed transport buffer. Hanks’ balanced salted solution (HBSS) containing HEPES (25 mM, pH 7.4). The transport buffer containing drug passed through a 0.2 μm membrane filter for degerming. For the absorption study (Apical to Basolateral), 0.5 mL incubation medium containing drug was added to the apical side as a donor chamber, 1.5 mL fresh incubation medium was added to the basolateral side as a receiver chamber. For the secretion study (Basolateral to Apical), 1.5 mL incubation medium containing drug was added to the basolateral side as a donor chamber, 0.5 mL fresh incubation medium was added to the apical side as a receiver chamber. Transport studies were conducted at 37 °C in a humidiﬁed incubator with shaking (50 rpm) for 1 h, and then the collected samples were analyzed by HPLC. […]

P-gp (MDR1) = assay: Bidirectional transport across MDCK-MDR1 monolayer cells; type: in vitro ADME, canine; conditions: dog
Description: as §1, §2
(§3) MDCK and MDCK-MDR1 cells were washed twice and equilibrated at 37 °C for 30 min with pre-warmed transport buffer. Hanks’ balanced salted solution (HBSS) containing HEPES (25 mM, pH 7.4). The transport buffer containing drug passed through a 0.2 μm membrane filter for degerming. For the absorption study (Apical to Basolateral), 0.5 mL incubation medium containing drug was added to the apical side as a donor chamber, 1.5 mL fresh incubation medium was added to the basolateral side as a receiver chamber. For the secretion study (Basolateral to Apical), 1.5 mL incubation medium containing drug was added to the basolateral side as a donor chamber, 0.5 mL fresh incubation medium was added to the apical side as a receiver chamber. Transport studies were conducted at 37 °C in a humidiﬁed incubator with shaking (50 rpm) for 1 h, and then the collected samples were analyzed by HPLC. Apparent permeability coefficients (Papp(A-B), Papp(B-A)) and efflux ratio (Pratio = (Papp(B-A)/Papp(A-B)) were used to evaluate the permeability and absorption profiles of compounds. P ratio is an important parameter to denote if a compound is a substrate of P-gp or not.

MDCK-MDR1 cells = assay: as above; type: in vitro ADME, canine
Description: as §1, §2, §3

[6] = pH 7.4, 55.6 μM 5e, 1 h, mean ± SD, n = 3
[7] = pH 7.4, MDCK-MDR1, 55.6 μM 5e, 1 h, mean ± SD, n = 3

T1 sequence (P56817 46-501): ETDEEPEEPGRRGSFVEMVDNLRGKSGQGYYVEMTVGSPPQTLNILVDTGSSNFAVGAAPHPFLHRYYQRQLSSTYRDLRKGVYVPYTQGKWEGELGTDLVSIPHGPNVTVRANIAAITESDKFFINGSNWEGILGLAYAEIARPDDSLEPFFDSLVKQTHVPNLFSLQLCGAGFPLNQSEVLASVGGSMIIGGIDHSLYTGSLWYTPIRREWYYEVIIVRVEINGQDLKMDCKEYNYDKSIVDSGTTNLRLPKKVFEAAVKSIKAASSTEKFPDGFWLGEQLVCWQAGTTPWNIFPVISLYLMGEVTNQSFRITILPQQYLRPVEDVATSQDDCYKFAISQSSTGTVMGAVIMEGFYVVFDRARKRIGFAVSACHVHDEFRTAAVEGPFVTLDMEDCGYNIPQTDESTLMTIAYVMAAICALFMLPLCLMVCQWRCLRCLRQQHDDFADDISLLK

| Structure (SMILES) | inhibition at 20 µg/mL (BACE-1 [3]) [%] | melting point [°C] | also measured |
| --- | --- | --- | --- |
| CCNc1cc(C(=O)N[C@@H](Cc2ccccc2)[C@H](O)CNCc2cccc(C(F)(F)F)c2)c(F)c(N2CCCCS2(=O)=O)c1 [GSK188909] |  |  | IC50 (BACE-1 [1]): 0.005 µM; blood-brain barrier permeability [2]: poor blood-brain barrier permeability |
| Nc1nc(-c2cc(NC(=O)c3ccc(C(F)(F)F)cc3)ccc2OCc2ccccc2)cs1 [3c, N-(3-(2-Aminothiazol-4-yl)-4-(benzyloxy)phenyl)-4-(trifluoromethyl)benzamide] | 33 ± 1.9 |  |  |
| Nc1nc(-c2cc(NC(=O)c3cccc4ccccc34)ccc2OCc2ccccc2)co1 [4e, N-(3-(2-Aminooxazol-4-yl)-4-(benzyloxy)phenyl)-1-naphthamide] | 42.6 ± 3.2 | 195 to 197 |  |
| Nc1nc(-c2cc(NC(=O)c3ccc(Cl)cc3)ccc2OCc2ccccc2)co1 [4b, N-(3-(2-Aminooxazol-4-yl)-4-(benzyloxy)phenyl)-4-chlorobenzamide] | 49.9 ± 0.2 |  |  |
| Nc1nc(-c2cc(NC(=O)c3ccccc3)ccc2OCc2ccccc2)co1 [4a, N-(3-(2-Aminooxazol-4-yl)-4-(benzyloxy)phenyl)benzamide] | 38.8 ± 0.3 |  |  |
| COc1ccc(C(=O)Nc2ccc(OCc3ccccc3)c(-c3csc(N)n3)c2)cc1 [3d, N-(3-(2-Aminothiazol-4-yl)-4-(benzyloxy)phenyl)-4-methoxybenzamide] | 29.5 ± 3.5 |  |  |
| Nc1nc(-c2cc(NC(=O)c3cccnc3)ccc2OCc2ccccc2)cs1 [3f, N-(3-(2-Aminothiazol-4-yl)-4-(benzyloxy)phenyl)nicotinamide] | 36.8 ± 6.9 | 212 to 213 |  |
| Nc1nc(-c2cc(NC(=O)c3cccc4ccccc34)ccc2OCc2ccccc2)cs1 [3e, N-(3-(2-Aminothiazol-4-yl)-4-(benzyloxy)phenyl)-1-naphthamide] | 55.3 ± 5.7 | 198 to 200 | IC50 (BACE-1 [3]): > 20 µM |
| Nc1nc(-c2cc(NC(=O)Cc3cccc4ccccc34)ccc2OCc2ccccc2)cs1 [3i, N-(3-(2-Aminothiazol-4-yl)-4-(benzyloxy)phenyl)-2-(naphthalen-1-yl)acetamide] | 11.3 ± 0.7 | 246 to 247 |  |
| Nc1nc(-c2cc(NC(=O)c3ccc(Cl)cc3)ccc2OCc2ccccc2)cs1 [3b, N-(3-(2-Aminothiazol-4-yl)-4-(benzyloxy)phenyl)-4-chlorobenzamide] | 20.4 ± 4.4 |  |  |
| Nc1nc(-c2cc(NC(=O)CCc3ccccc3)ccc2OCc2ccccc2)cs1 [3h, N-(3-(2-Aminothiazol-4-yl)-4-(benzyloxy)phenyl)-3-phenylpropanamide] | 3.1 ± 2.5 | 192 to 193 |  |
| NC1=NN=C(c2cc(NC(=O)c3ccc(C(F)(F)F)cc3)ccc2OCc2ccccc2)CS1 [5c, N-(3-(2-Amino-6H-1,3,4-thiadiazin-5-yl)-4-(benzyloxy)phenyl)-4-(trifluoromethyl)-benzamide hydro-bromide] | 46.9 ± 7.5 |  |  |
| Br.NC1=NN=C(c2cc(NC(=O)c3ccc(Cl)cc3)ccc2OCc2ccccc2)CS1 [5b, N-(3-(2-Amino-6H-1,3,4-thiadiazin-5-yl)-4-(benzyloxy)phenyl)-4-chlorobenzamide hydrobromide] | 76 ± 2.5 | 217 to 218 | IC50 (BACE-1 [3]): > 20 µM |
| Br.COc1ccc(C(=O)Nc2ccc(OCc3ccccc3)c(C3=NN=C(N)SC3)c2)cc1 [5d, N-(3-(2-Amino-6H-1,3,4-thiadiazin-5-yl)-4-(benzyloxy)phenyl)-4-methoxybenzamide hydrobromide] | 84.9 ± 16.7 | 181 to 182 | IC50 (BACE-1 [3]): > 20 µM |
| NC1=NN=C(c2cc(NC(=O)c3ccc(C(F)(F)F)cc3)ccc2OCc2ccccc2)CS1 (as salt: hydrobromid) [5c, N-(3-(2-Amino-6H-1,3,4-thiadiazin-5-yl)-4-(benzyloxy)phenyl)-4-(trifluoromethyl)-benzamide hydro-bromide] |  | 222 to 225 |  |
| NC1=NC(c2ccccc2)(c2ccccc2)C2=NCCCN12 [compound 2] |  |  | [brain] [4]: 15 µM |
| Br.NC1=NN=C(c2cc(NC(=O)c3cccc4ccccc34)ccc2OCc2ccccc2)CS1 [5e, N-(3-(2-Amino-6H-1,3,4-thiadiazin-5-yl)-4-(benzyloxy)phenyl)-1-naphthamide hydrobromide] | 60 ± 3.1 | 219 to 221 | IC50 (BACE-1 [3]): 9.9 µM; Papp A→B at 1 h, 55.6 μM [5, 6]: 28.2 ± 6.45 ×10⁻⁶ cm/s; Papp B→A at 1 h, 55.6 μM [5, 6]: 27.7 ± 2.87 ×10⁻⁶ cm/s; efflux ratio at 1 h, 55.6 μM ([5]; pH 7.4, Papp(B-A)/Papp(A-B)): 0.98; efflux ratio at 1 h, 55.6 μM (P-gp (MDR1); MDCK-MDR1, pH 7.4, MDCK-MDR1, Papp(B-A)/Papp(A-B), read-out: Efflux ratio): 0.7; efflux ratio at 1 h, 55.6 μM (P-gp (MDR1); MDCK-MDR1, pH 7.4, MDCK-MDR1 versus MDCK, read-out: Net efflux ratio): 0.71; Papp A→B at 1 h, 55.6 μM (P-gp (MDR1); [7]): 31.8 ± 1.85 ×10⁻⁶ cm/s; Papp B→A at 1 h, 55.6 μM (P-gp (MDR1); [7]): 22.2 ± 1.24 ×10⁻⁶ cm/s; Blood-brain barrier permeability assessment (MDCK-MDR1 cells; MDCK and MDCK-MDR1 model, in words): high brain uptake potential; also recorded: good penetration ability through the blood-brain barrier; also recorded: favorable blood-brain barrier permeability; P-gp substrate assessment (MDCK-MDR1 cells; net efflux ratio less than FDA's recommendation of 2): not a P-gp substrate |
| Nc1nc(-c2cc(NC(=O)Cc3ccccc3)ccc2OCc2ccccc2)cs1 [3g, N-(3-(2-Aminothiazol-4-yl)-4-(benzyloxy)phenyl)-2-phenylacetamide] | 8.9 ± 7 | 190 to 193 |  |
| COc1ccc(C(=O)Nc2ccc(OCc3ccccc3)c(-c3coc(N)n3)c2)cc1 [4d, N-(3-(2-Aminooxazol-4-yl)-4-(benzyloxy)phenyl)-4-methoxybenzamide] | 34.4 ± 5.7 |  |  |
| Nc1nc(-c2cc(NC(=O)c3ccc(C(F)(F)F)cc3)ccc2OCc2ccccc2)co1 [4c, N-(3-(2-Aminooxazol-4-yl)-4-(benzyloxy)phenyl)-4-(trifluoromethyl)benzamide] | 47.5 ± 9.9 | 225 to 227 |  |
| Nc1nc(-c2cc(NC(=O)c3ccccc3)ccc2OCc2ccccc2)cs1 [3a, N-(3-(2-Aminothiazol-4-yl)-4-(benzyloxy)phenyl)benzamide] | 29.3 ± 1.3 |  |  |
| Br.NC1=NN=C(c2cc(NC(=O)c3ccccc3)ccc2OCc2ccccc2)CS1 [5a, N-(3-(2-Amino-6H-1,3,4-thiadiazin-5-yl)-4-(benzyloxy)phenyl)benzamide hydrobromide] | 64.2 ± 0.5 | 246 to 247 | IC50 (BACE-1 [3]): 16.7 µM |
